Data as given in patent US7728033B2, “Mycophenolate mofetil in diabetic nephropathy” (Clinigene International Private Limited, priority 2003, dated 2010).

Key:
[1] = system: patients with diabetic nephropathy; assay: 24-hour urine protein (proteinuria), open-labeled randomized study; assay type: in vivo, human; set-up: Mean 24 h Urine protein, 1 month after treatment at V3 / Result Difference 24 h Urine protein, V3 (1 month) vs baseline V2 / Mean 24 h Urine protein, 3 month after treatment at V4: unit not given here
Protocol: In this study, a total of 30 patients were planned of which 18 were randomized and subjected to enter into one of the studies in which the patient groups each received MMF alone, lisinopril alone, or a combination of both MMF and lisinopril.
The primary end-point for this study was the proteinuria value obtained from the patients via 24-hour urine protein which was measured using the Calorimetric method Pyrogallol Red/SDS liquid stable single reagent.
(§1) Evaluation of the effects of MMF or ACE inhibitors alone or in combination on the status of proteinuria in patients with diabetic nephropathy was an open-labeled, randomized study. This study consisted of three arms as shown below. • 1. treatment with MMF alone • 2. treatment with combination of MMF and lisinopril • 3. treatment with lisinopril alone In addition, there were three phases of the study as shown below.
Phase 2: Treatment Phase (6 months): Every patient who qualified the screening phase was assigned one of the treatment arms. During this phase, patients were monitored closely and efficacy and safety parameters are assessed every month.
(§2) Study Products and Dosage: • 1. MMF: The dose of MMF given during the study was 500 mg per oral twice a day throughout the study. • 2. Lisinopril: The starting dose of lisinopril given in the study was 5 mg per oral twice a day. In case of hypertensive patients, the dose could be titrated upwards based on investigator's discretion, which in turn was based on the patient's “safety end point”. • 3. MMF+Lisinopril: In the patients who received both the drugs, the dose of MMF was 500 mg per oral twice a day and lisinopril was 5 mg per oral twice a day. In the case of hypertensive patients, the dose of lisinopril could be titrated upwards based on investigator's discretion, which in turn was based on the patient's “safety end point”.

[2] = system: patients with diabetic nephropathy; assay: Estimated GFR (Cockcroft-Gault formula), open-labeled randomized study; assay type: in vivo, human
Protocol: A secondary end-point for this study was the GFR value obtained for each patient. This Secondary Endpoint included Estimated GFR, which was calculated using the following formulae: […]
Once all data was collected, Glomerular Filtration Rate GFR) was determined by the Cockcroft-Gault formula.
as §1, §2

[3] = system: patients with IgA nephropathy; settings: MMF 1-1.5g per day vs Prednisone 30-40 mg per day; followed to 72 weeks; preliminary report; cited from earlier work
Diabetic rats = settings: 8 months; cited from earlier work
[4] = system: patients with lupus nephritis; settings: systemic lupus erythomatosis; 0.5 to 1.5 g/d; cited from earlier work
[5] = system: patients with type 1 diabetes mellitus and diabetic nephropathy; settings: cited from earlier work
[6] = Benefited patients, lisinopril alone 5 mg twice daily
[7] = Not benefited patients, lisinopril alone 5 mg twice daily
[8] = Benefited patients, MMF alone 500 mg per oral twice a day
[9] = Benefited patients, MMF alone 500 mg twice daily
[10] = Not benefited patients, MMF alone 500 mg per oral twice a day
[11] = Not benefited patients, MMF alone 500 mg twice daily

NCCCC[C@H](N[C@@H](CCc1ccccc1)C(=O)O)C(=O)N1CCC[C@H]1C(=O)O [lisinopril]
Mean 24 h Urine protein, 1 month after treatment at V3 [1, 6]: 236.66 | Mean 24 h Urine protein, 3 month after treatment at V4 [1, 6]: 161.15 | Mean 24 h Urine protein, 6 month after treatment at V5 [1, 6]: 248.4 | Result Difference 24 h Urine protein, V3 (1 month) vs baseline V2 [1, 6]: −133.6 | Result Difference 24 h Urine protein, V4 (3 month) vs baseline V2 [1, 6]: −268.75 | Result Difference 24 h Urine protein, V5 (6 month) vs baseline V2 [1, 6]: −239.6 | Mean 24 h Urine protein, 1 month after treatment at V3 [1, 7]: 211.25 | Mean 24 h Urine protein, 3 month after treatment at V4 [1, 7]: 289.2 | Mean 24 h Urine protein, 6 month after treatment at V5 [1, 7]: 626 | Result Difference 24 h Urine protein, V3 (1 month) vs baseline V2 [1, 7]: 53.73 | Result Difference 24 h Urine protein, V4 (3 month) vs baseline V2 [1, 7]: 101.47 | Result Difference 24 h Urine protein, V5 (6 month) vs baseline V2 [1, 7]: 254.2 | patients with reduced proteinuria ([1]; lisinopril alone 5 mg twice daily, at the end of 1 month): 42% | patients with reduced proteinuria ([1]; lisinopril alone 5 mg twice daily, at the end of 3 month): 40% | patients with reduced proteinuria ([1]; lisinopril alone 5 mg twice daily, at the end of 6 month): 50% | Mean GFR, 1 month after treatment at V3 [2, 6]: 79.16 mL/min | Mean GFR, 3 month after treatment at V4 [2, 6]: 89.55 mL/min | Mean GFR, 6 month after treatment at V5 [2, 6]: 105.9 mL/min | Result Difference GFR, V3 (1 month) vs baseline V2 [2, 6]: -0.09 mL/min | Result Difference GFR, V4 (3 month) vs baseline V2 [2, 6]: 7.95 mL/min | Result Difference GFR, V5 (6 month) vs baseline V2 [2, 6]: 28.5 mL/min | Mean GFR, 1 month after treatment at V3 [2, 7]: 63.97 mL/min | Mean GFR, 3 month after treatment at V4 [2, 7]: 68.76 mL/min | Mean GFR, 6 month after treatment at V5 [2, 7]: 76.4 mL/min | Result Difference GFR, V3 (1 month) vs baseline V2 [2, 7]: 1.91 mL/min | Result Difference GFR, V4 (3 month) vs baseline V2 [2, 7]: 0.13 mL/min | Result Difference GFR, V5 (6 month) vs baseline V2 [2, 7]: -9.4 mL/min

COc1c(C)c2c(c(O)c1C/C=C(\C)CCC(=O)OCCN1CCOCC1)C(=O)OC2 [MMF, mycophenolate mofetil]
Mean 24 h Urine protein, 1 month after treatment at V3 [1, 8]: 112.73 | Result Difference 24 h Urine protein, V3 (1 month) vs baseline V2 [1, 8]: −203.93 | Mean 24 h Urine protein, 3 month after treatment at V4 [1, 9]: 260.8 | Result Difference 24 h Urine protein, V4 (3 month) vs baseline V2 [1, 9]: −136.6 | patients with reduced proteinuria ([1]; MMF alone 500 mg twice daily, at V4 at the end of 3 months): 67% | patients with reduced proteinuria ([1]; MMF alone, after 1 month of treatment (V3 vs V2)): 67% | Mean 24 h Urine protein, 1 month after treatment at V3 [1, 10]: 696.3 | Result Difference 24 h Urine protein, V3 (1 month) vs baseline V2 [1, 10]: 361.7 | Mean 24 h Urine protein, 3 month after treatment at V4 [1, 11]: 305.5 | Mean GFR, 1 month after treatment at V3 [2, 8]: 89.3 mL/min | Result Difference GFR, V3 (1 month) vs baseline V2 [2, 8]: 0.27 mL/min | Mean GFR, 3 month after treatment at V4 [2, 9]: 81.85 mL/min | Result Difference GFR, V4 (3 month) vs baseline V2 [2, 9]: -1.35 mL/min | Mean GFR, 1 month after treatment at V3 [2, 10]: 75.26 mL/min | Result Difference GFR, V3 (1 month) vs baseline V2 [2, 10]: 4.40 mL/min | Mean GFR, 3 month after treatment at V4 [2, 11]: 49.9 mL/min | decreasing proteinuria, protecting renal function and decreasing blood lipid levels [3]: superior to Prednisone | albuminuria, glomerular macrophage infiltration and glomerulosclerosis (Diabetic rats): did prevent | effect on blood pressure, glomerular dynamics or blood glucose levels (Diabetic rats): no effect | tolerability [4]: well tolerated

C[C@H](CS)C(=O)N1CCC[C@H]1C(=O)O [Captopril]
progression of renal disease [5]: prevents or delays the progression of renal disease
